# Numbers after ± are expanded uncertainties.
# Settings: Liquid; for mass density: 298.15 K, 101.33 kPa, Vibrating tube method; for vapor or sublimation pressure: Ebulliometric method (Recirculating still)
smiles,measurement,setting,value
C=C1CC/C=C(\C)CC[C@@H]2[C@@H]1CC2(C)C,mass density,,896.8 ± 2 kg/m3
same,vapor or sublimation pressure,370.33 K,0.51 ± 0.4 kPa
same,vapor or sublimation pressure,380.5 K,0.84 ± 0.4 kPa
same,vapor or sublimation pressure,395.45 K,1.63 ± 0.41 kPa
same,vapor or sublimation pressure,420.02 K,4.31 ± 0.44 kPa
same,vapor or sublimation pressure,435.58 K,7.51 ± 0.52 kPa
same,vapor or sublimation pressure,454.18 K,13.85 ± 0.62 kPa
same,vapor or sublimation pressure,464.9 K,19.18 ± 0.78 kPa
same,vapor or sublimation pressure,474.02 K,24.96 ± 0.91 kPa
same,vapor or sublimation pressure,480.05 K,29.55 ± 1.1 kPa
same,vapor or sublimation pressure,491.45 K,40.33 ± 1.4 kPa
same,vapor or sublimation pressure,502.53 K,53.62 ± 1.7 kPa
same,vapor or sublimation pressure,512.49 K,68.83 ± 2.1 kPa
same,vapor or sublimation pressure,522.97 K,88.4 ± 2.4 kPa
same,vapor or sublimation pressure,528.78 K,101.33 ± 2.7 kPa
Cc1ccc(C(C)C)cc1 [1-(1-methylethyl)-4-methylbenzene],mass density,,853.2 ± 2 kg/m3
same,vapor or sublimation pressure,450.28 K,101.33 ± 6.1 kPa
"CC1=CCC2C(C1)C2(C)C (centres undefined) [3,7,7-trimethylbicyclo[4.1.0]hept-3-ene]",mass density,,863.8 ± 2 kg/m3
same,vapor or sublimation pressure,356.07 K,5.32 ± 0.64 kPa
same,vapor or sublimation pressure,378.03 K,14.5 ± 0.68 kPa
same,vapor or sublimation pressure,388.7 K,20.46 ± 0.8 kPa
same,vapor or sublimation pressure,391.9 K,22.59 ± 1 kPa
same,vapor or sublimation pressure,396.66 K,26.61 ± 1.1 kPa
same,vapor or sublimation pressure,405.49 K,34.54 ± 1.3 kPa
same,vapor or sublimation pressure,412.42 K,42.81 ± 1.5 kPa
same,vapor or sublimation pressure,416.18 K,47.76 ± 1.8 kPa
same,vapor or sublimation pressure,424.04 K,59.53 ± 1.9 kPa
same,vapor or sublimation pressure,426.24 K,63.19 ± 2.1 kPa
same,vapor or sublimation pressure,430.64 K,70.97 ± 2.2 kPa
same,vapor or sublimation pressure,433.68 K,76.91 ± 2.4 kPa
same,vapor or sublimation pressure,436.32 K,82.05 ± 2.7 kPa
same,vapor or sublimation pressure,439.47 K,89.96 ± 2.8 kPa
same,vapor or sublimation pressure,442.61 K,96.43 ± 2.8 kPa
same,vapor or sublimation pressure,444.44 K,101.33 ± 3.2 kPa
